The results in this text go back to patent publication US9320737B2, “Substituted imidazopyridazines” (Bayer Intellectual Property GmbH, priority 2011, dated 2016).

Each structure is given as a SMILES string.

This experiment deals with human full-length MKNK1 (Homo sapiens (Human), UniProt Q9BUB5, T344D). Kind of experiment: MKNK1 kinase assay (MKNK1 TR-FRET assay). The class given is biochemical. To be noted: GST-MKNK1 (T344D), 10 μM ATP, average or median values. How it is done: MKNK1-inhibitory activity of compounds of the present invention was quantified employing the MKNK1 TR-FRET assay as described in the following paragraphs.
Chain of human full-length MKNK1 (Q9BUB5 other isoform, or with tags, fused parts or gaps T344D): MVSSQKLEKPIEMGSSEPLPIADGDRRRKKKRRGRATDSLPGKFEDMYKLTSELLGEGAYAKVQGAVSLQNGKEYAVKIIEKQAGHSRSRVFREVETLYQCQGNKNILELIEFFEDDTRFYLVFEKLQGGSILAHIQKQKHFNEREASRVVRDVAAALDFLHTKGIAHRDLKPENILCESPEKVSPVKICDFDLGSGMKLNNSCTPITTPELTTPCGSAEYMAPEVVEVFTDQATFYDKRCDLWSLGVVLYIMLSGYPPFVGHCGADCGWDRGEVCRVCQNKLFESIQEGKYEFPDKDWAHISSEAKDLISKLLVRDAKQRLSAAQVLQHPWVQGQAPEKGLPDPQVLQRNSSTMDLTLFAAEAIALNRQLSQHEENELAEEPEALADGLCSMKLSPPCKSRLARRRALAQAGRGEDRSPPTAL
As substrate for the kinase reaction the biotinylated peptide biotin-Ahx-[…] (C-terminus in amide form) was used which can be purchased e.g. form the company Biosyntan (Berlin-Buch, Germany).
For the assay […] of a 100 fold concentrated solution of the test compound in DMSO was pipetted into a black low volume 384 well microtiter plate (Greiner Bio-One, Frickenhausen, Germany), 2 μL of a solution of MKNK1 in aqueous assay buffer [50 mM HEPES pH 7.5, 5 mM magnesium chloride, 1.0 mM dithiothreitol, 0.005% (v/v) Nonidet-P40 (Sigma)] was added and the mixture was incubated for 15 min at 22° C. to allow pre-binding of the test compounds to the enzyme before the start of the kinase reaction. Then the kinase reaction was started by the addition of 3 μL of a solution of adenosine-tri-phosphate (ATP, 16.7 μM=>final conc. in the 5 μL assay volume is 10 μM) and substrate (0.1 μM=>final conc. in the 5 μL assay volume is 0.06 μM) in assay buffer and the resulting mixture was incubated for a reaction time of 45 min at 22° C. The concentration of MKNK1 was adjusted depending of the activity of the enzyme lot and was chosen appropriate to have the assay in the linear range, typical concentrations were in the range of 0.05 μg/ml. The reaction was stopped by the addition of 5 μL of a solution of TR-FRET detection reagents (5 nM streptavidine-XL665 [Cisbio Bioassays, Codolet, France] and 1 nM anti-ribosomal protein S6 (pSer236)-antibody from Invitrogen [#44921G] and 1 nM LANCE EU-W1024 labeled ProteinG [Perkin-Elmer, product no. AD0071]) in an aqueous EDTA-solution (100 mM EDTA, 0.1% (w/v) bovine serum albumin in 50 mM HEPES pH 7.5).
The resulting mixture was incubated for 1 h at 22° C. to allow the formation of complex between the phosphorylated biotinylated peptide and the detection reagents. Subsequently the amount of phosphorylated substrate was evaluated by measurement of the resonance energy transfer from the Eu-chelate to the streptavidine-XL. Therefore, the fluorescence emissions at 620 nm and 665 nm after excitation at 350 nm were measured in a TR-FRET reader, e.g. a Rubystar (BMG Labtechnologies, Offenburg, Germany) or a Viewlux (Perkin-Elmer). The ratio of the emissions at 665 nm and at 622 nm was taken as the measure for the amount of phosphorylated substrate.
By IC50 is commonly meant the point on the concentration scale where inhibition reaches its midpoint. Lower therefore signals higher potency. `COc1ccc2oc(-c3cnc4ccc(OCCCS(C)(=O)=O)nn34)cc2c1` [Example III.2, 3-(5-Methoxy-1-benzofuran-2-yl)-6-[3-(methylsulfonyl)propoxy]imidazo[1,2-b]pyridazine] yielded an IC50 of 5 nM. For `C[S+]([O-])CCCCOc1ccc2ncc(-c3cc4ccccc4o3)n2n1` (stereo not shown) [Example II.3, 3-(1-Benzofuran-2-yl)-6-[4-(methylsulfinyl)butoxy]imidazo[1,2-b]pyridazine] the value was 5 nM; for `CS(=O)(CCCOc1ccc2ncc(-c3cc4ccccc4o3)n2n1)=NC#N` (stereo not shown) [Example IV.8, [(3-{[3-(1-Benzofuran-2-yl)imidazo[1,2-b]pyridazin-6-yl]oxy}propyl)(methyl)oxido-lambda^6-sulfanylidene]cyanamide], 7 nM; for `CS(=O)(=O)CCCOc1ccc2ncc(-c3cc4cc(Cl)ccc4o3)n2n1` [Example III.5, 3-(5-Chloro-1-benzofuran-2-yl)-6-[3-(methylsulfonyl)propoxy]imidazo[1,2-b]pyridazine], 15 nM. For the molecule `C[S+]([O-])CCCOc1ccc2ncc(-c3cc4ccccc4o3)n2n1` (stereo not shown) [Example II.2, 3-(1-Benzofuran-2-yl)-6-[3-(methylsulfinyl)propoxy]imidazo[1,2-b]pyridazine], the IC50 amounted to 4 nM. The molecule `CS(=N)(=O)CCCOc1ccc2ncc(-c3cc4ccccc4o3)n2n1` (stereo not shown) [Example IV.4, 3-(1-Benzofuran-2-yl)-6-[3-(S-methylsulfonimidoyl)propoxy]imidazo[1,2-b]pyridazine] came in with an IC50 of 4 nM. Turning to `Cc1cc2ncc(-c3cc4ccccc4o3)n2nc1OCCCS(C)(=O)=O` [Example III.10, 3-(1-Benzofuran-2-yl)-7-methyl-6-[3-(methylsulfonyl)propoxy]imidazo[1,2-b]-pyridazine], the IC50 is 11 nM. With `CS(=O)(=O)CCCOc1ccc2ncc(-c3cc4cc(F)ccc4o3)n2n1` [Example III.4, 3-(5-Fluoro-1-benzofuran-2-yl)-6-[3-(methylsulfonyl)propoxy]imidazo[1,2-b]pyridazine], half-maximal inhibition (IC50) was put at 7 nM. For `CSCCCOc1ccc2ncc(-c3cc4ccccc4o3)n2n1` [Example I.2, 3-(1-Benzofuran-2-yl)-6-[3-(methylsulfanyl)propoxy]imidazo[1,2-b]pyridazine] the value was 11 nM; for `COc1nccc2oc(-c3cnc4ccc(OCCCS(C)(=O)=O)nn34)cc12` [Example III.12, 3-(4-Methoxyfuro[3,2-c]pyridin-2-yl)-6-[3-(methylsulfonyl)propoxy]-imidazo-[1,2-b]pyridazine], 12 nM; for `CSCCOc1ccc2ncc(-c3cc4ccccc4o3)n2n1` [Example I.4, 3-(1-Benzofuran-2-yl)-6-[2-(methylsulfanyl)ethoxy]imidazo[1,2-b]pyridazine], 16 nM. For `COc1nccc2oc(-c3cnc4ccc(OCCCS(C)(=O)=NC#N)nn34)cc12` (stereo not shown) [Example IV.9, [(3-{[3-(4-Methoxyfuro[3,2-c]pyridin-2-yl)imidazo[1,2-b]pyridazin-6-yl]oxy}propyl)(methyl)oxido-lambda^6-sulfanylidene]cyanamide] the value was 9 nM; for `CS(=O)(=O)CCCOc1ccc2ncc(-c3cc4c(F)cccc4o3)n2n1` [Example III.9, 3-(4-Fluoro-1-benzofuran-2-yl)-6-[3-(methylsulfonyl)propoxy]imidazo[1,2-b]pyridazine], 17 nM; for `CS(=O)(=O)CCCOc1ccc2ncc(-c3cc4ccccc4o3)n2n1` [Example III.1, 3-(1-Benzofuran-2-yl)-6-[3-(methylsulfonyl)propoxy]imidazo[1,2-b]pyridazine], 5 nM. For `COc1nccc2oc(-c3cnc4ccc(OCCCS(C)(=N)=O)nn34)cc12` (stereo not shown) [Example IV.10, 3-(4-Methoxyfuro[3,2-c]pyridin-2-yl)-6-[3-(S-methylsulfonimidoyl)propoxy]-imidazo[1,2-b]pyridazine] the value was 9 nM; for `COc1cccc2oc(-c3cnc4ccc(OCCCSC)nn34)cc12` [Example I.1, 3-(4-Methoxy-1-benzofuran-2-yl)-6-[3-(methylsulfanyl)propoxy]imidazo[1,2-b]-pyridazine], 21 nM. As to `COc1cccc2oc(-c3cnc4ccc(OCCCS(C)(=O)=O)nn34)cc12` [Example III.3, 3-(4-Methoxy-1-benzofuran-2-yl)-6-[3-(methylsulfonyl)propoxy]imidazo[1,2-b]pyridazine], inhibition was half-maximal at 2 nM (IC50). Against the preceding molecule, the IC50 is about 10-fold lower. In turn, `CS(=O)(CCOc1ccc2ncc(-c3cc4ccccc4o3)n2n1)=NC(=O)C(F)(F)F` (stereo not shown) [Example IV.7, N-[(2-{[3-(1-Benzofuran-2-yl)imidazo[1,2-b]pyridazin-6-yl]oxy}ethyl)(methyl)oxido-lambda^6-sulfanylidene]-2,2,2-trifluoroacetamide] gave an IC50 of 47 nM. In turn, `CS(=O)(=O)CCCOc1ccc2ncc(-c3cc4cnccc4o3)n2n1` [III.13, 3-(Furo[3,2-c]pyridin-2-yl)-6-[3-(methylsulfonyl)propoxy]imidazo[1,2-b]-pyridazine] showed an IC50 of 28 nM. For `Cc1c(-c2cnc3ccc(OCCCS(C)(=O)=O)nn23)oc2ccccc12` [Example III.7, 3-(3-Methyl-1-benzofuran-2-yl)-6-[3-(methylsulfonyl)propoxy]imidazo[1,2-b]pyridazine] the value was 61 nM. The molecule `CS(=O)(=O)CCCOc1ccc2ncc(-c3cc4cccc(F)c4o3)n2n1` [Example III.6, 3-(7-Fluoro-1-benzofuran-2-yl)-6-[3-(methylsulfonyl)propoxy]imidazo[1,2-b]pyridazine] yielded an IC50 of 48 nM. Take `CS(=O)(=O)CCCOc1ccc2ncc(-c3cc4ncccc4o3)n2n1` [Example III.14, 3-(Furo[3,2-b]pyridin-2-yl)-6-[3-(methylsulfonyl)propoxy]imidazo[1,2-b]pyridazine]: the IC50 was determined as 60 nM. This IC50 and that of the molecule before are within 1.5-fold of each other. The value for `CS(=O)(CCCCOc1ccc2ncc(-c3cc4ccccc4o3)n2n1)=NC(=O)C(F)(F)F` (stereo not shown) [Example IV.5, N-[(4-{[3-(1-Benzofuran-2-yl)imidazo[1,2-b]pyridazin-6-yl]oxy}butyl)(methyl)oxido-lambda^6-sulfanylidene]-2,2,2-trifluoroacetamide] was 15 nM; that for `COc1cccc2oc(-c3cnc4ccc(OCCCS(C)(=O)=NC(=O)C(F)(F)F)nn34)cc12` (stereo not shown) [Example IV.1, 2,2,2-Trifluoro-N-[(3-{[3-(4-methoxy-1-benzofuran-2-yl)imidazo[1,2-b]pyridazin-6-yl]oxy}propyl)(methyl)oxido-lambda^6-sulfanylidene]acetamide] was 9 nM; that for `CSCCCCOc1ccc2ncc(-c3cc4ccccc4o3)n2n1` [Example I.3, 3-(1-Benzofuran-2-yl)-6-[4-(methylsulfanyl)butoxy]imidazo[1,2-b]pyridazine] was 27 nM. For `CS(=O)(=O)CCCOc1nn2c(-c3cc4ccccc4o3)cnc2cc1-c1ccccc1` [Example III.11, 3-(1-Benzofuran-2-yl)-6-[3-(methylsulfonyl)propoxy]-7-phenylimidazo[1,2-b]-pyridazine] the value was 17 nM.

The molecule `Cc1cccc2cc(-c3cnc4ccc(OCCCS(C)(=O)=O)nn34)oc12` [Example III.8, 3-(7-Methyl-1-benzofuran-2-yl)-6-[3-(methylsulfonyl)propoxy]imidazo[1,2-b]pyridazine] returned an IC50 of 70 nM. Consider `COc1cccc2oc(-c3cnc4ccc(OCCC[S+](C)[O-])nn34)cc12` (stereo not shown) [Example II.1, 3-(4-Methoxy-1-benzofuran-2-yl)-6-[3-(methylsulfinyl)propoxy]imidazo[1,2-b]pyridazine], for which the IC50 is 2 nM. Compared with the last molecule, the IC50 is about 35-fold lower.
